Laboratory results published in US20240382544A1, “COMPOSITION FOR ANTI-OBESITY AND PREVENTING OR TREATING MUSCLE LOSS, CONTAINING CATECHIN GLYCOSIDE EXTRACT DERIVED FROM PLANT IN GENUS ULMUS AS ACTIVE INGREDIENT” (DR. OREGONIN INC., priority 2022, published 2024).
“Also recorded” adds a separate entry of the source.

System: 3T3-L1 cells
Experiment: Adipocyte differentiation (fat accumulation), Oil Red O staining
Assay type: cell-based, mouse
Description: 3T3-L1 cells, which are mouse-derived preadipocytes, were purchased from Korean Cell Line Bank. The 3T3-L1 cells were cultured using an DMEM medium (Welgene) supplemented with 10% bovine calf serum (BCF), 100 units/mL penicillin and 100 μg/mL streptomycin (complete DMEM medium) in a humidified CO2 incubator (5% CO2/95% air) at 37° C. When the cells filled about 80% of the culture dish, the cell monolayer was washed with phosphate-buffered saline (PBS, pH 7.4) and the cells were detached by adding trypsin-2.65 mM EDTA. Then, the cells were subcultured while replacing the medium every other day.
3T3-L1 cells were seeded onto a 24-well plate at 1×10^5 cells/well. When the cells reached confluence, differentiation into adipocytes was induced by culturing the cells while replacing the medium sequentially with three differentiation media (DM). That is to say, differentiation was induced for 2 days by replacing the medium with a differentiation medium wherein DMI (1 μM dexamethasone, 0.5 mM 3-isobutyl-1-methylxanthine (IBMX) and 5 μg/mL insulin) was added to a DMEM medium containing 10% FBS. Then, differentiation was induced again for 2 days by replacing the medium with a fresh differentiation medium wherein 5 μg/mL insulin was added to a DMEM medium containing 10% FBS. Then, differentiation into adipocytes was induced by maintaining the cells for 2 days in a DMEM medium containing 10% FBS. […]

Structure (SMILES): OCC1(O)CO[C@@H](Oc2cc(O)c3c(c2)OC(c2ccc(O)c(O)c2)[C@@H](O)C3)C1O (stereo partly drawn) [catechin 7-O-β-D-apiofuranoside]
- adipocyte differentiation-inhibiting ability (in words) (3T3-L1, concentration dependence): statistically significant adipocyte differentiation-inhibiting ability in a concentration-dependent manner; also recorded: inhibits the differentiation of adipocytes in a concentration-dependent manner with statistical significance
- inhibition at 20 µg/mL (Mus musculus, 20 μg/mL (highest concentration tested), 3T3-L1, Oil Red O, read-out: adipocyte differentiation-inhibiting ability): ≥ 40%
